How the values were obtained:
Homo sapiens [1] = organism: Homo sapiens; experiment: Compound was tested for human IgG protein binding at 1 mg/mL
Homo sapiens [2] = organism: Homo sapiens; experiment: Compound was tested for human IgG protein stability at 100 ug/mL; format: functional
Homo sapiens [3] = organism: Homo sapiens; experiment: Compound was tested for human IgG protein binding at 100 ug/mL

Structure (SMILES) | Binding (Homo sapiens [1]) | Stability (Homo sapiens [2]) | Binding (Homo sapiens [3])
CC(C)CCCC(C)C1CCC2C3CC=C4CC(OCCCCCC(=O)ON5C(=O)CCC5=O)CCC4(C)C3CCC12C (stereo not drawn) | 40.3% | 94.1% | 77.5%
CC(C)CCCC(C)C1CCC2C3CC=C4CC(OCCCCCCNC(=O)c5cccc(N6C(=O)C=CC6=O)c5)CCC4(C)C3CCC12C (stereo not drawn) | 39.5% | 86% | 61.1%
CC(C)CCCC(C)C1CCC2C3CC=C4CC(OCCCCCCN=C=S)CCC4(C)C3CCC12C (stereo not drawn) | 31.9% | 86.5% | 55.9%
CC(C)CCCC(C)C1CCC2C3CC=C4CC(OCCCCCCC(=O)ON5C(=O)CCC5=O)CCC4(C)C3CCC12C (stereo not drawn) | 46% | 91% | 69.5%
CC(C)CCCC(C)C1CCC2C3CC=C4CC(OCCCCCCO)CCC4(C)C3CCC12C (stereo not drawn) | 31.9% | 86.4% | 58.7%
CC(C)CCCC(C)C1CCC2C3CC=C4CC(OCCCCCCSCc5ccc(C(=O)ON6C(=O)CCC6=O)cc5)CCC4(C)C3CCC12C (stereo not drawn) | 43.3% | 91.8% | 60.4%
